Reference: PMC11279465, “Dual Inhibitors of P-gp and Carbonic Anhydrase XII (hCA XII) against Tumor Multidrug Resistance with Piperazine Scaffold” (Molecules, 2024)

Key:
A549 cells = experiment: Intrinsic cytotoxicity (MTT); type: cell-based, human; settings: compound alone at 1 µM; parental A549; 48 h
Experimental: (§1) All compounds were preliminarily studied to evaluate their intrinsic cytotoxicity at different concentrations (from 10 nM to 50 µM) in the parental HT29 and A549 and the resistant HT29/DOX and A549/DOX cells using the MTT assay.
(§2) The intrinsic toxicity of the studied compounds was determined by an MTT assay. K562 and K562/DOX were exposed for 72 h with compounds at 1 and 3 µM concentrations while HT29, A549, HT29/DOX and A549/DOX cells were incubated for 48 h with compounds used at different concentrations (from 10 nM to 50 µM). The percentage of growth compared to the untreated control was transformed into histograms with the GraphPad Prism 5 program.

HT29 cells = experiment: Intrinsic cytotoxicity (MTT); type: cell-based, human; settings: compound alone at 1 µM; parental HT29; 48 h
Experimental: as §1, §2

P-gp [1] = target: T1, P-gp (Homo sapiens, UniProt P08183); experiment: P-gp ATPase activity (A549/DOX cells); type: biochemical; design: endogenous in cells; host or cells: HT29/DOX (A27) and A549/DOX (A28); settings: 1 µM, compared with A549
T1 sequence (P08183 whole entry): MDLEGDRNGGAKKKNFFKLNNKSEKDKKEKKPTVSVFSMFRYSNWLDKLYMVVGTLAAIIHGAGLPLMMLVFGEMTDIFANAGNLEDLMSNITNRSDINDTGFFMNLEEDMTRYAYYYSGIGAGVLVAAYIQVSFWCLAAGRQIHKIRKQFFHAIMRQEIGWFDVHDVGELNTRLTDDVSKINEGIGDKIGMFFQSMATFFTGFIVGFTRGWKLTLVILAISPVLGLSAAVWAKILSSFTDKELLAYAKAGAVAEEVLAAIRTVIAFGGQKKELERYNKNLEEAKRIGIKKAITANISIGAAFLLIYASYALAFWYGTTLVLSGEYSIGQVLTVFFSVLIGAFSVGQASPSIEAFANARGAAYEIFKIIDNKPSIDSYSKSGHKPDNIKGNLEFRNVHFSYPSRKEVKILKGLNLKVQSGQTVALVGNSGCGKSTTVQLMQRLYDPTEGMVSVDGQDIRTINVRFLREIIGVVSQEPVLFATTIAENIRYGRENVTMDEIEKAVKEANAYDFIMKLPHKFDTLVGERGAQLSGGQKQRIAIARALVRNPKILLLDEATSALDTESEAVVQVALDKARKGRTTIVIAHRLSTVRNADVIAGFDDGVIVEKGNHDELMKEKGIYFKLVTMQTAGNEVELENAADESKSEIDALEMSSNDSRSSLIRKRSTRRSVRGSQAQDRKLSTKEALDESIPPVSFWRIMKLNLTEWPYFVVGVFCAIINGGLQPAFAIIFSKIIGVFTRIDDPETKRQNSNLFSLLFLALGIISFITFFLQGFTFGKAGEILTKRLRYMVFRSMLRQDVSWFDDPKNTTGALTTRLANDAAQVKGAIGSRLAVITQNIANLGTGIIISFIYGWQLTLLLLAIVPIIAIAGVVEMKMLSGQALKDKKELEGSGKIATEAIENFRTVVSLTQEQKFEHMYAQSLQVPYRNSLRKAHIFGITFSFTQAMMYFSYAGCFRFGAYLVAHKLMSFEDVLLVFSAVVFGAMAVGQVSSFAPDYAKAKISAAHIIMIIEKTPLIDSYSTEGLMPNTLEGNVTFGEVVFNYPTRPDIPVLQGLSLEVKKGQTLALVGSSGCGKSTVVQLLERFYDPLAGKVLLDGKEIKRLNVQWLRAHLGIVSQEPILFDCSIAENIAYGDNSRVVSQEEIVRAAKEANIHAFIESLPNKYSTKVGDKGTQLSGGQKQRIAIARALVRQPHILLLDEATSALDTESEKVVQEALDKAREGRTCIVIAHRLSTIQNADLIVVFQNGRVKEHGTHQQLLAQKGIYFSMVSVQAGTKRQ
Experimental: (§3) Plasma-membrane vesicles enriched with P-gp were prepared by sequential centrifugation as detailed previously. The ATPase activity of immunopurified P-gp was evaluated spectrophotometrically by measuring the absorbance of the phosphate hydrolyzed from ATP at 620 nm, using a Synergy HT Multi-Detection Microplate Reader (Bio-Tek Instruments). The absorbance was converted into μmol hydrolyzed phosphate/min/mg proteins, according to the titration curve previously prepared.

hCA IX = target: T2, hCA IX (Homo sapiens, UniProt Q16790); experiment: CA inhibition, stopped-flow CO2 hydrase assay; type: biochemical; settings: stopped-flow technique; incubation time 6 h; mean of 3 assays
T2 construct: made in house
Method in brief: (§4)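 Stopped-flow CO2 hydration used saturated CO2 solutions at 25 °C as substrate. Enzyme and inhibitor (10 μM stocks in DMSO-water, diluted down to 0.01 nM) were preincubated for 6 h at room temperature.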

hCA XII = target: T3, hCA XII (Homo sapiens, UniProt O43570); experiment: CA inhibition, stopped-flow CO2 hydrase assay; type: biochemical; settings: stopped-flow technique; incubation time 6 h; mean of 3 assays
T3 construct: made in house
T3 sequence (O43570 25-354): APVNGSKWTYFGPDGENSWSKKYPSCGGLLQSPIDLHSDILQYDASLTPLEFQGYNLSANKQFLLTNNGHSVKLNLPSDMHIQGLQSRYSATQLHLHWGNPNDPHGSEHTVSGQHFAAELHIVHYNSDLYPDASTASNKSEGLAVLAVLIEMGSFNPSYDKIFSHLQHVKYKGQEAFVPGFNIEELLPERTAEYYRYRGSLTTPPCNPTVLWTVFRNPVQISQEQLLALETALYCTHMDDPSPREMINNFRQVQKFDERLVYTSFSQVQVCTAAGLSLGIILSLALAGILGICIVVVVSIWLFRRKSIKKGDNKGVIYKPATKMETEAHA
Method in brief: as §4

hCA I = target: T4, hCA I (Homo sapiens, UniProt P00915); experiment: CA inhibition, stopped-flow CO2 hydrase assay; type: biochemical; settings: stopped-flow technique; incubation time 6 h; mean of 3 assays
T4 construct: made in house
T4 sequence (P00915 whole entry): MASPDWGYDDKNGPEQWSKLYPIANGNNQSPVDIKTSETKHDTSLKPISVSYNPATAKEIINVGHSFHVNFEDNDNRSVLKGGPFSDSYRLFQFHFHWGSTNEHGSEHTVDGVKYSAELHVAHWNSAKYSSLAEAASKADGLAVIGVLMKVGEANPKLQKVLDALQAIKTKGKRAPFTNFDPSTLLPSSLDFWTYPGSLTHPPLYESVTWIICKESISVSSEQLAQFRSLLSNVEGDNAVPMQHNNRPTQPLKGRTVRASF
Method in brief: as §4

hCA II = target: T5, hCA II (Homo sapiens, UniProt P00918); experiment: CA inhibition, stopped-flow CO2 hydrase assay; type: biochemical; settings: stopped-flow technique; incubation time 6 h; mean of 3 assays
T5 construct: made in house
Method in brief: as §4

HT29/DOX cells [2] = experiment: TBARS (lipid peroxidation, 4-HNE kit); type: cell-based, human; settings: 1 µM
Experimental: (§5) Selected compounds have been tested for their cytotoxic activity at 24 h on HT29/DOX and A549/DOX cells and on the parental HT29 and A549 cells by MTT assay. To evaluate the mechanisms involved in CS, reactive oxygen species (ROS) were measured using the fluorescent probe 5-(and-6)-chloromethyl-2′,7′-dichlorodihydro-fluorescein diacetate-acetoxymethyl ester (DCFDA-AM), as previously reported. The results were expressed as nmol/mg cellular proteins. The amount of TBARS, as an index of lipoperoxidation, was measured with the Lipid Peroxidation (4-HNE) Assay Kit (Abcam, Cambridge, UK) that evaluates the 4-hydroxy-nonenale, one of the TBARS Results were expressed as nmoles/mg mitochondrial protein.

A549/DOX cells [3] = experiment: TBARS (lipid peroxidation, 4-HNE kit); type: cell-based, human; settings: 1 µM
Experimental: as §5

HT29/DOX cells [4] = experiment: Intrinsic cytotoxicity (MTT); type: cell-based, human; settings: 48 h; for toxicity: compound alone at 1 µM, HT29/DOX; for more cytotoxic in resistant cells than in parental sensitive cells: compound alone, 1 µM, HT29/DOX vs HT29
Experimental: as §1
as §2, with “program. […]” for “program.”

A549/DOX cells [5] = experiment: Intrinsic cytotoxicity (MTT); type: cell-based, human; settings: 48 h; for toxicity: compound alone at 1 µM, A549/DOX; for more cytotoxic in resistant cells than in parental sensitive cells: compound alone, 1 µM, A549/DOX vs A549
Experimental: as §1
as §2, with “program. […]” for “program.”

HT29/DOX cells [6] = experiment: ROS measurement (DCFDA-AM); type: cell-based, human; settings: 1 µM
Experimental: as §5

A549/DOX cells [7] = experiment: ROS measurement (DCFDA-AM); type: cell-based, human; settings: 1 µM
Experimental: as §5

P-gp [8] = target: T1, P-gp; experiment: P-gp ATPase activity (HT29/DOX cells); type: biochemical; design: endogenous in cells; host or cells: HT29/DOX (A27) and A549/DOX (A28); settings: 1 µM, compared with HT29
Experimental: as §3

| Structure (SMILES) | toxicity (A549 cells) | toxicity (HT29 cells) | P-gp catalytic activity (P-gp [1]) | Ki (hCA IX) | Ki (hCA XII) | Ki (hCA I) | Ki (hCA II) | increase of TBARS levels compared to the control (HT29/DOX cells [2]) | increase of TBARS levels compared to the control (A549/DOX cells [3]) | toxicity (HT29/DOX cells [4]) | more cytotoxic in resistant cells than in parental sensitive cells (HT29/DOX cells [4]) | toxicity (A549/DOX cells [5]) | more cytotoxic in resistant cells than in parental sensitive cells (A549/DOX cells [5]) | increase of ROS levels compared to the control (HT29/DOX cells [6]) | increase of ROS levels compared to the control (A549/DOX cells [7]) | P-gp catalytic activity (P-gp [8]) |
| --- | --- | --- | --- | --- | --- | --- | --- | --- | --- | --- | --- | --- | --- | --- | --- | --- |
| COc1ccc(C(CCCN2CCN(CCCCOc3ccc4ccc(=O)oc4c3)CC2)c2ccc(OC)cc2)cc1 [Compound 27, 7-(4-(4-(4,4-Bis(4-methoxyphenyl)butyl)piperazin-1-yl)butoxy)-2H-chromen-2-one] | ≥ 35% | ≥ 35% | lowered the catalytic efficacy of P-gp in resistant cells to levels comparable to drug-sensitive HT29 and A549 cells | 145 nM | 92.1 nM | > 10000 nM | > 10000 nM | 2.6 times | 4 times | ≥ 35% | 15%-20% | ≥ 35% | 15%-20% | 3–4 times | 7–8 times | lowered the catalytic efficacy of P-gp in resistant cells to levels comparable to drug-sensitive HT29 and A549 cells |
| COc1ccc(C(CCCN2CCN(CCCOc3ccc4oc(=O)ccc4c3)CC2)c2ccc(OC)cc2)cc1 [Compound 32, 6-(3-(4-(4,4-Bis(4-methoxyphenyl)butyl)piperazin-1-yl)propoxy)-2H-chromen-2-one] | ≥ 35% | ≥ 35% | lowered the catalytic efficacy of P-gp in resistant cells to levels comparable to drug-sensitive HT29 and A549 cells | 89.6 nM | 71.5 nM | > 10000 nM | > 10000 nM | 2.6 times | 4 times | ≥ 35% | 15%-20% | ≥ 35% | 15%-20% | 3–4 times | 7–8 times | lowered the catalytic efficacy of P-gp in resistant cells to levels comparable to drug-sensitive HT29 and A549 cells |
